This note sets out measurements from US11884686B2, “Chelate compounds” (priority 2016, dated 2024).

A short description of test [1]: Dissociation kinetics via Zn2+ transmetallation (T1 relaxation time). The test is classed as physicochemical. The settings on record: for nature of the kinetic dissociation curve, Zn2+ exchange: time dependent T1, 25° C., pH 5.1-5.7. The method, then:
Kinetic inertness was evaluated at slightly acidic pH due to the slow rate of dissociation of the paramagnetic complex at physiological pH and to the potential hydrolysis of the metal ions at the concentrations used for the experiments and at pH values close to physiological.
The dissociation kinetics of Mn(II) based chelates (concentration 1 mM) of the invention was assessed via Zn^2+ transmetallation recording the time-dependent variation of the longitudinal relaxation time (i.e., T1). The assessment was completed in a set of experiments including for the prior art Mn Chelate different concentrations of competing metal ion (5, 10, 20, 40 equivalents of Zn^2+); at 25° C. and different pH (pH: 5.1; 5.4; 5.7). The dissociation kinetics for Mn Chelate 4 (concentration 1 mM) was assessed in the presence of 5 eq of Zn^2+ at 25° C. and pH 5.1 and 5.7. For both assessments, the reaction mixture contained 0.15 M NaCl and 50 mM N-methyl piperazin buffer (i.e., NMP). The longitudinal relaxation time changes were monitored at 1 MHz for the prior art Mn Chelate and at 0.01 MHz for Mn Chelate 4. Indeed, the release of the free Mn^2+ ion induced by Zn^2+ leads to a decrease of the relaxation time for both Mn(II) based chelates evaluated in all experimental conditions. […]
For any of the transmetallation experiments carried out with the prior art Mn Chelate (e.g., at different pH; different Zn^2+ or Cu^2+ concentration) it was evident that the variation of the relaxation rate T1 (for the Zn^2+-exchange; FIG. 4) or the variation of the UV-Vis absorbance (for the Cu^2+-exchange; FIG. 5) caused by competing metal ion was a “single phase” process better described as a mono-exponential function. […] The rate of dissociation described by kobs was calculated via equation (1) where [MnL]tot is the total concentration of Mn(II) based chelates and t is the observation time.

The nature of test [2]: Dissociation kinetics via Cu2+ transmetallation (UV-Vis absorbance). The test is classed as physicochemical. The settings on record: pH = 5.0, CCu2+ 0.004 M, 25° C., 0.2 mM chelate.

As for `CN1CCN2Cc3cccc(n3)CN(CC1)C(CCC(=O)N(C)C[C@H](O)[C@@H](O)[C@H](O)[C@H](O)CO)C(=O)[O][Mn][O]C(=O)C2CCC(=O)N(C)C[C@H](O)[C@@H](O)[C@H](O)[C@H](O)CO` (stereo partly shown) [Mn Chelate 4], the “kinetic inertness from conversion, Zn2+ transmetallation” value in test [1] (FIG. 11, versus prior art Mn Chelate) is “superior kinetic inertness”. For the same molecule, the “nature of the kinetic dissociation curve, Zn2+ exchange” value in test [1] is given as “biphasic behaviour”.

As for `CN1CCN2CC(=O)[O][Mn][O]C(=O)CN(CC1)Cc1cccc(n1)C2` [Prior Art Mn Chelate, reference compound], the “nature of the kinetic dissociation curve, Zn2+ exchange” value in test [1] is recorded as “single phase”. The molecule further registered a kobs1 in test [2] of 0.032 min⁻¹.
